From US6284726A, “Inhibition of angiogenesis by peptide analogs of high molecular weight kininogen domain 5” (Temple University - Of The Commonwealth System of Higher …, priority 2000, dated 2001)

Key:
HUVEC cells = assay: CyQUANT proliferation assay of bFGF-stimulated HUVEC; assay type: cell-based, human; conditions: 10 ng/ml bFGF; for Proliferation % Inhibition: 48 hours
Experimental: Cell proliferation was determined by using CyQUANT cell proliferation assay kit from Molecular Probes (catalog #C-7026).
HUVEC cells (50,000/well) in a 96 well microtiter plate were stimulated with 10 ng/ml bFGF in serum-free, M199 growth medium with or without HK peptide for 48 hours at 37° C. in a CO2 incubator. Cells were washed with serum-free medium and frozen at -40° C. Frozen cells were thawed and lysed with a lysis buffer containing the CyQUANT GR dye. Fluorescence was measured using a Cytofluor II Fluorescence Multi-well plate reader with excitation 485 nm and emission with 530 nm.
The percent inhibition of proliferation at a specific peptide concentration was determined for some peptides. For other peptides, an IC50 was calculated from a curve plotting inhibitor concentration versus percent inhibition over a inhibition range of ten to ninety percent inhibition.

[1] = tested on: chorioallantoic membrane (CAM) of embryonated chicken eggs; assay: In ovo chick chorioallantoic membrane (CAM) angiogenesis assay; assay type: in vivo; conditions: for inhibition of bFGF-stimulated angiogenesis (blood vessel branch points): bFGF-saturated filter disc on CAM, peptide 0-25 μg in 25 μl saline, 0.27 μM, applied 24 hours later
Excerpt: New vessels, quantified by blood vessel branching, occurred in response to bFGF, VEGF, or a combination of both. Accordingly, ten day old embryonated chicken eggs were candled to illuminate blood vessels under the shell. An area with a minimum of small blood vessel was identified. The chorioallantoic membrane (CAM) was dropped away from the egg shell in this area by grinding a small hole in the mineralized shell and applying pressure to the underlying inner shell membrane. This caused an air pocket to shift from the wide end of the egg to the identified area and forced a circular region of the CAM approximately 2 cm in diameter to drop away from the shell. A window was cut in the egg shell. A cortisone acetate pre-treated filter disc 5 mm in diameter that was saturated in 1 μg/mi bFGF, a combination of bFGF and VEGF, or saline and was placed on the CAM. The window in the shell was sealed with adhesive tape and the egg was incubated for four days. Peptide GST-SEQ ID NO:10 (0-25 μg in 25 μI saline; 0.27 μM) was applied to the saturated filter 24 hours later and was applied to the stimulated CAM. The CAM was then harvested on the fourth day of stimulation. Data were evaluated in terms of average number of blood vessel branch points per treatment group as well as percent of control using a video camera attached to a personal computer. Under the conditions of the assay, peptide GST-SEQ ID NO:10 inhibited bFGF-stimulated angiogenesis by 97% and bFGF/VEGF-stimulated angiogenesis by 94%. There was no inhibition of bFGF-stimulated angiogenesis by GST alone (<10% inhibition).

HUVECs = assay: Transwell migration of endothelial cells to vitronectin; assay type: cell-based, human; conditions: 0.27 μM; four hours at 37° C.
Experimental: The lower side of 8 μm pore transwell inserts (Costar, Inc.) were coated with 2 μg/ml of vitronectin for one hour and blocked with 2% bovine serum albumin in phosphate buffered saline for one hour. The inserts were then placed into 24 well culture dishes containing 500 μl migration buffer in the lower chamber. Twenty-five thousand HUVECs in 50 μl of migration buffer were added to the upper chamber of duplicate inserts containing 50 μl of a solution of 50 μg/ml GST-SEQ ID NO. 10 peptide in migration buffer (Herpes buffered M199 medium containing 1% BSA, […], […] and 0.2 μM MnCl2) or migration buffer alone. Cells were allowed to migrate from the upper to the lower chamber for four hours at 37° C. Nonmigratory cells were removed from the upper surface by wiping the upper side with an absorbent tip. Cells which migrated to the lower side of the transwell insert were then fixed for 15 minutes with 3.7% paraformaldehyde in phosphate buffered saline and stained with a 2% crystal violet solution. After extensive water washing to remove excess crystal violet, the number of cells which had migrated were counted in three representative high power (200X) fields per inset.

GST-Glu(448)-Ser(626) [GST-SEQ ID NO: 12]
Proliferation % Inhibition (HUVEC cells; peptide conc. 0.35 μM): 65%

GST-His(441)-Ser(626) [GST-SEQ ID NO: 8]
Proliferation % Inhibition (HUVEC cells; peptide conc. 0.39 μM): 100%

GST-Lys(420)-Asp(474) [GST-SEQ ID NO: 5]
Proliferation % Inhibition (HUVEC cells; peptide conc. 0.36 μM): 94%

GST-Lys(420)-Ser(513) [GST-SEQ ID NO: 10]
inhibition of bFGF-induced angiogenesis, as seen in FIG. 1D (in words) ([1]; bFGF plus GST fusion peptide, CAM): substantial inhibition
inhibition of bFGF-stimulated angiogenesis (blood vessel branch points) ([1]; harvested on fourth day): 97%
inhibition of bFGF/VEGF-stimulated angiogenesis (blood vessel branch points) ([1]; filter disc with combination of bFGF and VEGF on CAM, peptide 0.27 μM applied 24 hours later, harvested on fourth day): 94%
inhibition of HUVEC migration to vitronectin (HUVECs): 100%
IC50 (HUVEC cells; serum-free M199, 48 hours, read-out: IC50 (inhibition of endothelial cell proliferation)): < 30 nM
Proliferation % Inhibition (HUVEC cells; peptide conc. 0.27 μM): 100%

glutathione-S-transferase [GST, reference compound]
inhibition of bFGF-stimulated angiogenesis (blood vessel branch points) ([1]; harvested on fourth day): < 10%
